Results: patent publication US20260209260A1, “VECTORIZED NHC IRIDIUM(III) COMPLEXES AND USE THEREOF IN PHOTODYNAMIC THERAPY AND/OR DIAGNOSTIC” (CENTRE NATIONAL DE LA RECHERCHE SCIENTIFIQUE, priority 2022, published 2026)
Several values for one entry are separate records, joined by “and”; a condition that tells them apart may be missing. Equal values may be shown once. Read-outs that look alike come from different tables or passages of the source.

Legend:
Type in all cases: cell-based, Human
A549 lung cancer cells = assay: Cell viability assay (MTT), dark and blue light; conditions: for GI50: read-out: GI50; for Photosensitizing index (PI): A549, dark vs blue light
Procedure, shortened: (§1)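 Cells seeded at 5,000–10,000/well, attached overnight, then exposed to complexes in DMSO (final 0.1% v/v) for 72 h in the dark, or for 8 h dark followed by 10 min irradiation and dark incubation to 72 h. MTT added 3–4 h at 37 °C; formazan dissolved in DMSO, read at 570 nm.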

[1] = tested on: MiaPaCa2 pancreas cancer cells; assay: Cell viability assay (MTT), dark and blue light; conditions: for Photosensitizing index (PI): MiaPaCa2, dark vs blue light; for GI50: read-out: GI50
Procedure, shortened: as §1

[2] = tested on: cancer cells (all tumor cell lines tested); assay: Cell viability assay (MTT), summary over the cancer cell lines tested; conditions: for GI50: blue light 458 nm, read-out: GI50 mean over cancer cells, irradiated; for PI values, mean over cancer cells: dark vs blue light 458 nm; for increase in cell toxicity in cancer cells compared to non-tumor models: irradiated conditions
Experimental: Cells were grown in humidified incubators at 37° C. in 5% CO2. Murine MC3T3 osteoblast and NIH-3T3 fibroblast cells-used as non-tumor cell models-were cultured in a-MEM medium and DMEM medium supplemented with 10% fetal bovine serum (FBS) and 1% Penicillin/Streptomycin (P/S) antibiotics, respectively. Human T24 bladder, MGHU3 bladder, Scaber bladder, A549 lung, MCF7 breast, MiaPaCa2 pancreas cancer cells were cultured in DMEM medium supplemented with 10% FBS and 1% P/S antibiotics. […] Human Hela cervix and HepG2 liver cancer cells were cultured EMEM medium supplemented with 10% FBS and 1% P/S antibiotics.
MTT reagent (3-(4,5-dimethylthiazol-2-yl)-2,5-diphenyltetrazolium bromide) was used to determine cell death as originally described by Mosmann. Briefly, cells were seeded from 5,000 to 10,000 cells/well in 24-well plates (1 mL) depending on the cell type and allowed to attach overnight. The complexes were prepared in DMSO. The concentration of the complexes was calculated based on the elemental composition of the complexes determined by the elemental analyses. All cell viability experiments were carried out with a fixed concentration of 0.1% (v/v) DMSO. After 72 h of treatment, cells were incubated at 37° C. and 5% CO2 with 25 μL of MTT solution (5 mg/ml; Sigma-Aldrich) in 24-well plates for 3 to 4 h. After solubilization with 500 μL of DMSO, formazan was quantified spectrophotometrically with a microplate reader at 570 nm absorbance (ClarioSTAR, BMG LabTech). […] All the results were calculated from data obtained in at least three independent experiments performed in triplicate.
Two sets of experiments were conducted in parallel for each complex to be studied:
1. The cells were incubated with the different complexes (in the dark) for 72 h.
2. The cells were incubated for 8 h with the different complexes (in the dark), then irradiated for 10 min, followed by an incubation in the dark up to 72 h.

[3] = tested on: PC-3 prostate cancer cells (PSMA-negative); assay: Cell viability assay (MTT), dark and blue light; conditions: for Photosensitizing index (PI): PC3, dark vs blue light
Procedure, shortened: (§2)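 Dark versus photoactivated cytotoxicity is compared by MTT in RPMI-grown cells, with 72 h total compound exposure at 0.1% DMSO. Blue light (458 nm) is given for 10 min after an 8 h incubation; data come from at least three independent triplicate experiments.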

MCF7 breast cancer cells = assay: Cell viability assay (MTT), dark and blue light; conditions: for Photosensitizing index (PI): MCF7, dark vs blue light; for GI50: read-out: GI50
Procedure, shortened: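 Cells seeded 5,000–10,000/well, treated in 0.1% (v/v) DMSO either 72 h in dark or 8 h dark, 10 min 458 nm blue LED irradiation (9.6 W), then dark to 72 h. Viability by MTT, absorbance 570 nm; at least three independent experiments in triplicate.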

[4] = tested on: 22rV1 prostate cancer cells (PSMA-positive); assay: Cell viability assay (MTT), dark and blue light
Procedure, shortened: as §2

[5] = tested on: C4-2B prostate cancer cells (PSMA-positive); assay: Cell viability assay (MTT), dark and blue light
Procedure, shortened: as §2

[6] = PC3, blue light, read-out: GI50

F[P-](F)(F)(F)(F)F.O=C(NCCCn1cc[n+]2[c]1[Ir-3]13([c]4ccccc4-c4c5ccccc5cc[n+]41)([c]1ccccc1-c1c4ccccc4cc[n+]13)[n+]1ccccc1-2)[c-]1cccc1.[Fe+2].c1cc[cH-]c1 [IV-h]
GI50 (A549 lung cancer cells; A549, blue light): 270 nM | SI (vs MC3T3) (A549 lung cancer cells; A549, dark): 3.4 | Photosensitizing index (PI) (A549 lung cancer cells): 18.9 | Photosensitizing index (PI) [1]: 24.6 | SI (vs MC3T3) ([1]; MiapaCa2, blue light): 86.2 | SI (vs NIH-3T3) ([1]; MiapaCa2, blue light): 63.8 | SI (vs NIH-3T3) ([1]; MiapaCa2, dark): 7.8 | GI50 ([1]; MiapaCa2, dark): 1700 nM | selectivity for cancer cells over non-tumor cells, in words [2]: most selective effects under irradiated conditions | GI50 [2]: 155 nM | PI values, mean over cancer cells [2]: 20.1 fold | increase in cell toxicity in cancer cells compared to non-tumor models [2]: 29 fold | SI (vs MC3T3) ([3]; PC3, blue light): 77.6 | GI50 [3, 6]: 58 nM | SI (vs NIH-3T3) ([3]; PC3, dark): 10.2 | Photosensitizing index (PI) [3]: 22.4 | GI50 ([3]; PC3, dark, read-out: GI50): 1300 nM | SI (vs NIH-3T3) (MCF7 breast cancer cells; MCF7, blue light): 15.7 | SI (vs MC3T3) (MCF7 breast cancer cells; MCF7, dark): 2.9 | SI (vs NIH-3T3) (MCF7 breast cancer cells; MCF7, dark): 2.2 | Photosensitizing index (PI) (MCF7 breast cancer cells): 21.4 | GI50 (MCF7 breast cancer cells; MCF7, dark): 6000 nM

F[P-](F)(F)(F)(F)F.O=C(O)CC[C@H](NC(=O)N[C@@H](CCCCNC(=O)CCn1cc[n+]2[c]1[Ir-3]13([c]4c(sc5ccccc45)-c4cccc[n+]41)([c]1c(sc4ccccc14)-c1cccc[n+]13)[n+]1ccccc1-2)C(=O)O)C(=O)O [III-j]
GI50 ([4]; 22Rv1, blue light, read-out: GI50): 280 nM | Photosensitizing index (PI) ([4]; 22Rv1, dark vs blue light): 35.4 | GI50 ([4]; 22Rv1, dark, read-out: GI50): 9900 nM | GI50 ([4]; 8 h in the dark, blue light 458 nm 10 min, then dark up to 72 h, read-out: GI50 22Rv1 Blue): 280 nM | SI (vs MC3T3) 22Rv1 Blue ([4]; blue light 458 nm): 44.0 | SI (vs NIH-3T3) 22Rv1 Blue ([4]; blue light 458 nm): 38.0 | SI (vs NIH-3T3) 22Rv1 Dark ([4]; dark): >10.1 | GI50 ([4]; in the dark, 72 h, read-out: GI50 22Rv1 Dark): 9900 nM | GI50 [3, 6]: 1940 nM | Photosensitizing index (PI) [3]: 30.0 | GI50 ([3]; PC3, dark, read-out: GI50): 58200 nM | SI (vs MC3T3) PC-3 Blue ([3]; blue light 458 nm): 6.6 | SI (vs MC3T3) PC-3 Dark ([3]; dark): >4.3 | SI (vs NIH-3T3) PC-3 Dark ([3]; dark): >1.7 | GI50 ([3]; in the dark, 72 h, read-out: GI50 PC-3 Dark): 58200 nM | GI50 ([5]; 8 h in the dark, blue light 458 nm 10 min, then dark up to 72 h, read-out: GI50 C4-2b Blue): 520 nM | GI50 ([5]; C4-2b, blue light, read-out: GI50): 520 nM | Photosensitizing index (PI) ([5]; C4-2b, dark vs blue light): 21.7 | GI50 ([5]; C4-2b, dark, read-out: GI50): 11300 nM | SI (vs MC3T3) C4-2b Blue ([5]; blue light 458 nm): 24.0 | SI (vs NIH-3T3) C4-2b Blue ([5]; blue light 458 nm): 20.7 | SI (vs MC3T3) C4-2b Dark ([5]; dark): >22.1 | SI (vs NIH-3T3) C4-2b Dark ([5]; dark): >8.8 | GI50 ([5]; in the dark, 72 h, read-out: GI50 C4-2b Dark): 11300 nM

F[P-](F)(F)(F)(F)F.O=C(NCCCn1cc[n+]2[c]1[Ir-3]13([c]4ccccc4-c4sc5ccccc5[n+]41)([c]1ccccc1-c1sc4ccccc4[n+]13)[n+]1ccccc1-2)[c-]1cccc1.[Fe+2].c1cc[cH-]c1 [IV-k]
SI (vs MC3T3) (A549 lung cancer cells; A549, blue light): 15.0 | SI (vs NIH-3T3) (A549 lung cancer cells; A549, blue light): 34.2 | GI50 (A549 lung cancer cells; A549, blue light): 340 nM | SI (vs MC3T3) (A549 lung cancer cells; A549, dark): 2.7 | Photosensitizing index (PI) (A549 lung cancer cells): 11.2 | GI50 (A549 lung cancer cells; A549, dark): 3800 nM | Photosensitizing index (PI) [1]: 6.9 | SI (vs MC3T3) ([1]; MiapaCa2, blue light): 15.9 | SI (vs NIH-3T3) ([1]; MiapaCa2, blue light): 36.3 | GI50 ([1]; MiapaCa2, blue light): 320 nM | SI (vs NIH-3T3) ([1]; MiapaCa2, dark): 8.5 | GI50 ([1]; MiapaCa2, dark): 2200 nM | PI values, mean over cancer cells [2]: 1.8 fold | SI (vs MC3T3) ([3]; PC3, blue light): 37.0 | SI (vs NIH-3T3) ([3]; PC3, dark): 17.3 | Photosensitizing index (PI) [3]: 7.9 | GI50 ([3]; PC3, dark, read-out: GI50): 1100 nM | SI (vs MC3T3) (MCF7 breast cancer cells; MCF7, blue light): 8.2 | SI (vs NIH-3T3) (MCF7 breast cancer cells; MCF7, blue light): 18.7 | GI50 (MCF7 breast cancer cells; MCF7, blue light): 620 nM | SI (vs MC3T3) (MCF7 breast cancer cells; MCF7, dark): 1.8 | SI (vs NIH-3T3) (MCF7 breast cancer cells; MCF7, dark): 3.2 | Photosensitizing index (PI) (MCF7 breast cancer cells): 9.4 | GI50 (MCF7 breast cancer cells; MCF7, dark): 6800 nM and 5800 nM

F[P-](F)(F)(F)(F)F.O=C(NCCCn1cc[n+]2[c]1[Ir-3]13([c]4c(sc5ccccc45)-c4cccc[n+]41)([c]1c(sc4ccccc14)-c1cccc[n+]13)[n+]1ccccc1-2)[c-]1cccc1.[Fe+2].c1cc[cH-]c1 [IV-j]
GI50 (A549 lung cancer cells; A549, blue light): 370 nM | SI (vs MC3T3) (A549 lung cancer cells; A549, dark): 2.5 | SI (vs NIH-3T3) (A549 lung cancer cells; A549, dark): 9.7 | Photosensitizing index (PI) (A549 lung cancer cells): 17.6 | GI50 (A549 lung cancer cells; A549, dark): 6500 nM | Photosensitizing index (PI) [1]: 21.9 | SI (vs MC3T3) ([1]; MiapaCa2, blue light): 24.4 | SI (vs MC3T3) ([1]; MiapaCa2, dark): 4.7 | SI (vs NIH-3T3) ([1]; MiapaCa2, dark): 17.9 | selectivity for cancer cells over non-tumor cells, in words [2]: most selective effects under irradiated conditions | GI50 [2]: 228 nM | PI values, mean over cancer cells [2]: 39.8 fold | increase in cell toxicity in cancer cells compared to non-tumor models [2]: 39 fold | SI (vs MC3T3) ([3]; PC3, dark): 2.2 | Photosensitizing index (PI) [3]: 121.7 | GI50 ([3]; PC3, dark, read-out: GI50): 7300 nM | GI50 (MCF7 breast cancer cells; MCF7, blue light): 720 nM and 420 nM | SI (vs NIH-3T3) (MCF7 breast cancer cells; MCF7, dark): 9.5 | Photosensitizing index (PI) (MCF7 breast cancer cells): 15.7 | GI50 (MCF7 breast cancer cells; MCF7, dark): 6600 nM
